In paper PMC5601360 (Journal of Medicinal Chemistry, 2017):

How the values were obtained:
[1] = target: T1, human KOP receptor (Homo sapiens, UniProt P41145); test: [35S]GTPγS binding assay using CHO-hKOP cell membranes; type: biochemical; details: for EC50: CHO-hKOP membranes, mean ± SEM; for Emax: read-out: [35S]GTPγS KOP % stim
T1 construct: expressed in transfected cells; host or cells: CHO-hKOP cells (gift of Dr. Lawrence Toll, SRI International)
Method: The binding of [^35S]GTPγS to membranes from CHO cells stably expressing human KOP receptors (CHO-hKOP cells) was conducted according to the published procedures.[9a],[9b] CHO-hKOP cell membranes were prepared in buffer A (20 mM HEPES, 10 mM MgCl2, and 100 mM NaCl, pH 7.4). Cell membranes (8–15 μg) in buffer A were incubated with 0.05 nM [^35S]GTPγS, 10 μM GDP, and various concentrations of test compound in a final volume of 1 mL for 60 min at 25 °C. Nonspecific binding was determined using 10 μM GTPγS, and the basal binding was determined in the absence of test ligand. Samples are filtered over glass fiber filters and counted as described for binding assays. […] To determine the KOP antagonist activity, a concentration–response curve for U69,593 was obtained by assessing the [^35S]GTPγS binding to CHO-hKOP cell membranes in the presence or absence of test compound, as previously described.[9b] For each compound, the Schild analysis was conducted, utilizing a full agonist–dose response curve in the presence of at least two concentrations of the antagonist. The equilibrium dissociation constant (Ke) was calculated from the equation Ke = [a]/(DR – 1), where “a” is the concentration of antagonist and DR the virtual shift of the agonist concentration–response curve to the right in the presence of a given concentration of antagonist. All experiments were performed in duplicate and repeated at least three times.

[2] = target: T2, human DOP receptor (Homo sapiens, UniProt P41143); test: Competition binding assay, CHO-hDOP cell membranes, [3H]diprenorphine; details: mean ± SEM, read-out: receptor binding affinity Ki DOP
T2 construct: expressed in transfected cells; host or cells: CHO-hDOP cells (gift of Dr. Lawrence Toll, SRI International)
Method: (§1) CHO cells stably expressing recombinant human KOP, MOP, or DOP receptors (CHO-hKOP, CHO-hMOP, and CHO-hDOP cell lines) were kindly provided by Dr. Lawrence Toll (SRI International, Menlo Park, CA). The CHO-hKOP cell line was maintained in Dulbecco’s Minimal Essential Medium (DMEM) supplemented with fetal bovine serum (FBS, 10%), penicillin/streptomycin (0.1%), L-glutamine (2 mM), and geneticin (400 μg/mL). The CHO-hMOP and CHO-hDOP cell lines were maintained in DMEM/Ham’s F-12 medium supplemented with FBS (10%), penicillin/streptomycin (0.1%), L-glutamine (2 mM), and geneticin (400 μg/mL). Cell cultures were maintained at 37 °C in 5% CO2 humidified air.
(§2) . Nonspecific binding was determined using 1–10 μM of the unlabeled counterpart of each radioligand. Assays were performed in 50 mM Tris-HCl buffer (pH 7.4) in a final volume of 1 mL. Cell membranes (15–20 μg) were incubated with the appropriate radioligand and various concentrations of test compound for 60 min at 25 °C. After incubation, reactions were terminated by rapid filtration through Whatman glass fiber filters. Filters were washed three times with 5 mL of ice-cold 50 mM Tris-HCl buffer (pH 7.4) using a Brandel M24R cell harvester (Gaithersburg, MD). Radioactivity retained on the filters was counted by liquid scintillation counting using a Beckman Coulter LS6500 (Beckman Coulter Inc., Fullerton, CA). All binding experiments were performed in duplicate and repeated at least three times. The inhibitory constant Ki values (in nM) were calculated from the competition binding curves by nonlinear regression analysis and the Cheng–Prusoff equation.[16]

[3] = tested on: acetic acid-induced writhing in CD1 mice; test: Acetic acid-induced writhing assay in mice after sc administration; type: in vivo; details: sc; for ED50: Mus musculus, 0.5 h, CD1 mice, inhibition of writhing at 30 min after drug administration, read-out: antinociceptive ED50 (95% CI)
Method: Male CD1 mice (30–35 g, 6–8 weeks old) were obtained from the Center of Biomodels and Experimental Medicine (CBEM) (Innsbruck, Austria) or Charles River (Sulzfeld, Germany). Mice were group-housed in a temperature controlled room with a 12 h light/dark cycle and with free access to food and water. All animal studies were conducted in accordance with ethical guidelines and animal welfare standards according to Austrian regulations for animal research and were approved by the Committee of Animal Care of the Austrian Federal Ministry of Science and Research. Solutions of test compounds were prepared as 1% DMSO solutions in sterile physiological 0.9% saline and further diluted to working doses in saline solution. Test compounds or vehicle (saline) were administered by sc route in a volume of 10 μL/1 g of body weight. All doses are expressed in terms of salts. Separate groups of mice received the respective dose of compound, and individual mice were only used once for behavioral testing. Each experimental group included at least five animals.
Writhing was induced in male CD1 mice by intraperitoneal (ip) injection of a 0.6% acetic acid aqueous solution as described previously.[9a] Groups of mice were administered sc different doses of test compound or saline (control), and then 5 min prior to testing (25 min after drug or saline) each animal received an ip injection of acetic acid solution. Each mouse was placed in individual transparent Plexiglas chambers, and the number of writhes was counted during a 10 min observation period. […] For the antagonism studies, nor-BNI (20 mg/kg) was sc administered 24 h before 2 (5 mg/kg) and 17 (10 mg/kg) was sc administered 15 min before U50,488 (2 mg/kg).

[4] = target: T1, human KOP receptor; test: Competition binding assay, CHO-hKOP cell membranes, [3H]U69,593; details: for Ki: CHO-hKOP membranes, mean ± SEM, read-out: receptor binding affinity Ki KOP; for selectivity DOP/KOP: Ki ratio DOP/KOP; for selectivity MOP/KOP: Ki ratio MOP/KOP
Method: as §1
as §2, with “Nonspecific” for “. Nonspecific”

[5] = target: T3, human MOP receptor (Homo sapiens, UniProt P35372); test: Competition binding assay, CHO-hMOP cell membranes, [3H]DAMGO; details: mean ± SEM, read-out: receptor binding affinity Ki MOP
T3 construct: expressed in transfected cells; host or cells: CHO-hMOP cells (gift of Dr. Lawrence Toll, SRI International)
Method: as §1, §2

[6] = percentage stimulation relative to the KOP full agonist U69,593

SMILES | EC50 [1] [nM] | Emax [1, 6] [%] | Ki [2] [nM] | ED50 [3] [mg/kg] | Ki [4] [nM] | selectivity DOP/KOP [4] | selectivity MOP/KOP [4] | Ki [5] [nM] | [35S]GTPγS KOP % stim [1, 6] [%] | lower KOP affinity vs compound 4 ([4]; Ki comparison) | decrease in in vitro agonist potency vs compound 3 ([1]; EC50 comparison) | reduction in antinociceptive potency vs compound 3 ([3]; ED50 comparison)
Cl.Oc1cccc(CCN(CCc2ccccc2)Cc2ccccc2)c1 [Compound 5, 3-[2-[(Benzyl)(phenethyl)amino]ethyl]phenol Hydrochloride] | 4.65 ± 1.63 | ≥ 80 | 1860 ± 501 | 1.21 | 0.71 ± 0.25 | 2623 | 652 | 463 ± 95 | – | – | – | –
Cl.Oc1cccc(CCN(CCc2ccccc2)C2CCC2)c1 [Compound 6, 3-[2-[(Cyclobutyl)(phenethyl)amino]ethyl]phenol Hydrochloride] | 46.1 ± 13.9 | 50.7 ± 5 | 3540 ± 38 | – | 10.3 ± 1.2 | 344 | 65 | 670 ± 174 | – | – | – | –
CC(C)CCN(CCc1ccccc1)CCc1cccc(O)c1.Cl [Compound 7, 3-[2-[(Isoamyl)(phenethyl)amino]ethyl]phenol Hydrochloride] | 22.1 ± 3.1 | 74.7 ± 3.6 | 2740 ± 677 | 2.78 | 2.69 ± 0.43 | 1020 | 96 | 259 ± 86 | – | – | – | –
Cl.Oc1cccc(CCN(CCc2cccc(O)c2)CC2CCC2)c1 [Compound 8, 3,3′-[2,2′-(Cyclobutylmethylazanediyl)bis(ethane-2,1-diyl)]diphenol Hydrochloride] | 4.44 ± 1.36 | 71.1 ± 5.2 | 3340 ± 844 | 1.71 | 0.38 ± 0.09 | 8789 | 605 | 230 ± 43 | – | – | – | –
Cl.Oc1cccc(CCN(CCc2cccc(O)c2)CC2CC2)c1 [Compound 9, 3,3′-[2,2′-(Cyclopropylmethylazanediyl)bis(ethane-2,1-diyl)]diphenol Hydrochloride] | 20.6 ± 0.6 | 51.3 ± 7.6 | 2850 ± 720 | 4.73 | 4.62 ± 0.11 | 617 | 137 | 631 ± 215 | – | – | – | –
C=CCN(CCc1cccc(O)c1)CCc1cccc(O)c1.Cl [Compound 10, 3,3′-[2,2′-(Allylazanediyl)bis(ethane-2,1-diyl)]diphenol Hydrochloride] | 154 ± 62 | 37.5 | 738 ± 16 | – | 19.1 ± 0.6 | 39 | 19 | 358 ± 28 | 37.5 ± 0.6 | – | – | –
Cl.Oc1cccc(CCN(CCc2cccc(O)c2)CC2CCCCC2)c1 [Compound 11, 3,3′-[2,2′-(Cyclohexylmethylazanediyl)bis(ethane-2,1-diyl)]diphenol Hydrochloride] | 17.6 ± 7.1 | ≥ 80 | 1430 ± 506 | 0.95 | 0.14 ± 0.04 | 10229 | 1193 | 167 ± 52 | – | about 2 fold | – | –
Cl.Oc1cccc(CCN(CCc2cccc(O)c2)CC2CCCC2)c1 [Compound 12, 3,3′-[2,2′-(Cyclopentylmethylazanediyl)bis(ethane-2,1-diyl)]diphenol Hydrochloride] | 13.7 ± 3.5 | ≥ 80 | 2780 ± 545 | 1.19 | 0.31 ± 0.04 | 8952 | 1884 | 584 ± 119 | – | – | about 3 fold | about 2 fold
CC(C)CCN(CCc1cccc(O)c1)CCc1cccc(O)c1.Cl [Compound 13, 3,3′-[2,2′-(Isoamylazanediyl)bis(ethane-2,1-diyl)]diphenol Hydrochloride] | 16.6 ± 0.7 | 65.6 ± 3.4 | 1470 ± 147 | 2.63 | 2.1 ± 0.26 | 699 | 100 | 211 ± 17 | – | – | – | –
Cl.Oc1ccc(CCN(CCc2cccc(O)c2)CC2CCC2)cc1 [Compound 14, 3-[2-[(Cyclobutylmethyl)(4-hydroxyphenethyl)amino]ethyl]phenol Hydrochloride] | 22.2 ± 3.6 | 76.4 ± 1.1 | 428 ± 93 | 1.73 | 3.43 ± 0.75 | 125 | 5 | 16.1 ± 4.7 | – | – | – | –
Cl.Oc1ccc(CCN(CCc2cccc(O)c2)CC2CCCCC2)cc1 [Compound 15, 3-[2-[(Cyclohexylmethyl)(4-hydroxyphenethyl)amino]ethyl]phenol Hydrochloride] | 22.2 ± 7.2 | ≥ 80 | 1640 ± 557 | 1.9 | 1.85 ± 0.07 | – | – | 234 ± 112 | – | – | – | –
C=CCN(CCc1ccc(O)cc1)CCc1cccc(O)c1 [Compound 16] | 248 ± 89 | 28.5 | 1100 ± 485 | – | 43.5 ± 1.5 | 25 | 4 | 192 ± 17 | – | – | – | –
c1ccc(CCN(CCc2ccccc2)CC2CCC2)cc1 [Compound 22, N-(Cyclobutylmethyl)-N-phenethyl-2-phenylethanamine] | 359 ± 116 | ≥ 80 | 2180 ± 881 | – | 79.1 ± 12.5 | 28 | 13 | 1060 ± 263 | – | – | – | –
